# According to PubChem BioAssay AID720512 (Broad Institute, 2013):
# The source made the active and inactive calls. No rule for the calls is given here.
# Molecular target: Toxin B (TcdB) glycohydrolase, Clostridioides difficile 630
# Test: TcdB glycohydrolase inhibitors, dose response, biochemical, cherry-pick, plate reader (AID 720512)
# Conditions: recombinant TcdB glycohydrolase activity
row,Compound,AC50
1,COc1ccc2nc(NNC(=O)C3COc4ccccc4O3)sc2c1 (stereo not given),3.04 µM
2,CNc1cncc(-c2ccc(O)cc2)n1,> 39 µM (inactive)
3,CCC(=O)N1CC[C@@H]2[C@@H](CO)N(C)c3ccc(-c4ccccc4)cc3[C@@H]21,> 42 µM (inactive)
4,O=S(=O)(Oc1ccccc1/C=N/n1cnnc1)c1ccccc1,> 39 µM (inactive)
5,C/C(=N\Nc1cc(N2CCOCC2)ncn1)c1ccc(O)cc1,> 39 µM (inactive)
6,CCOC(=O)c1[nH]nc(-c2cc(CC)c(O)cc2O)c1-c1cscn1,> 39 µM (inactive)
7,Oc1ccc(/C=N/N2CCN(c3ccccn3)CC2)cc1,> 39 µM (inactive)
8,CC1CCC/C(=C\c2ccc(O)cc2)C1=O (stereo not given),16.9 µM
9,C[C@H](CO)N1C[C@H](C)[C@@H](CN(C)C(=O)Nc2ccc(C(F)(F)F)cc2)Oc2c(NS(=O)(=O)c3cccs3)cccc2C1=O,> 39 µM (inactive)
10,Cc1ccc(S(=O)(=O)N2CC(CBr)=CCC2c2ccccc2)cc1 (stereo not given),> 39 µM (inactive)
11,CCC(=O)N1CC[C@@H]2[C@H]1c1cc(-c3ccccc3)ccc1N(C)[C@H]2CO,> 42 µM (inactive)
12,Cc1cccc(OCCC(=O)NCC(=O)Nc2cccc(C)c2C)c1,> 39 µM (inactive)

# Same assay, conditions: recombinant TcdB glycohydrolase activity, at 10 µM (top of the series)
row,Compound,"activity change, negative = inhibition"
1,COc1ccc2[nH]c3c(=O)n(CCCCC(=O)NCCN4CCCC4)c(=S)[nH]c3c2c1,inactive

# Same assay, conditions: recombinant TcdB glycohydrolase activity, at 19.5 µM (top of the series)
row,Compound,"activity change, negative = inhibition"
1,COc1ccc(-c2nc(N)ncc2-c2ccccc2OC)c(O)c1,inactive
2,CC(C)=CCOc1c2occc2cc2ccc(=O)oc12,inactive
3,CN(C)c1ccc(NC(=O)/C=C/c2c(Cl)cccc2Cl)cc1,inactive
4,COc1ccccc1CNC(=O)CN(c1ccc(C)cc1)S(=O)(=O)c1c(C)n[nH]c1C,inactive
5,C[C@H](CO)N1C[C@H](C)[C@@H](CN(C)C(=O)Nc2ccc(C(F)(F)F)cc2)Oc2ccc(NC(=O)C3CCCCC3)cc2C1=O,inactive
6,Oc1ccc(/C=N/Nc2ncnc3nc[nH]c23)cc1,inactive
7,COc1cccc(-n2c(SCC(=O)N3CCOCC3)nnc2-c2c[nH]c3ccccc23)c1,inactive
8,CC(C)Sc1nnc(NC(=O)c2ccco2)s1,inactive
9,Cn1c(-c2ccc(F)c(F)c2)cc2onc(-c3ccccc3)c2c1=O,inactive
10,COc1cc([N+](=O)[O-])ccc1NC(=O)Oc1ccc(NC(C)=O)cc1,inactive
11,CNC(=O)C[C@H]1CC[C@@H]2[C@H](COc3ccc(NC(=O)Nc4ccc(C)cc4)cc3C(=O)N2C)O1,inactive
12,COC(=O)C(C(=O)OC)C(CC(=O)c1ccc(Br)cc1)c1ccccc1 (stereo not given),inactive
13,CN1CCN(CC(=O)Nc2cc(N(C)C)nc3ccccc23)CC1,inactive
14,CSc1ccccc1NC(=O)C1=CC(c2ccc(C)cc2)=NS(=O)(=O)N1C,inactive
15,CC(Oc1ccc(Cl)cc1Cl)C(=O)Nc1ccc(O)cc1 (stereo not given),inactive
16,Cc1ccc(-c2csc(NC(=O)/C=C/c3ccco3)c2C(=O)O)cc1,inactive
17,ClCC(CNCc1ccccc1)c1ccccc1 (stereo not given),inactive
18,O=P1(Oc2ccccc2)OCCCS1 (stereo not given),inactive
19,O=C(O)c1cc(NS(=O)(=O)c2ccc(NC3CCCCC3)c([N+](=O)[O-])c2)cc(C(=O)O)c1,inactive
20,CC(C)(C)OCC(O)CN1CCN(C(=O)c2ccccc2)CC1 (stereo not given),inactive
21,CC[n+]1ccc(/C=C/c2ccc(N(C)C)cc2)c2ccccc21,inactive
22,Cc1onc(-c2ccccc2)c1C(=O)N/N=C/c1cn(C)c2ccccc12,inactive

row,Compound,"activity change, negative = inhibition"
1,O=C(C[C@H]1CC[C@@H]2[C@H](COC[C@@H](O)CN2C(=O)c2ccccn2)O1)NC1CCC1,inactive
2,Nc1nc(Nc2ccccc2)n[nH]1,inactive
3,N/C(=N\N=C\c1ccc(O)cc1)c1nonc1N,inactive
4,CC(=O)Nc1ccc(NC(=O)CN2CCN(c3ccccn3)CC2)cc1,inactive
5,O=C(Nc1ccccc1F)N1C[C@@H]2N[C@H](C1)C2c1ccc(-c2cccc(F)c2)cc1 (stereo not given in full),inactive
6,O=C(CSc1nnc(-c2ccncc2)o1)N1CCCCCC1,inactive
7,Nc1ccc(OC(=O)Nc2ccc(O)cc2)cc1,inactive
8,COc1cccc(C(=O)Nc2ccc3c(c2)C(=O)N(C)[C@@H]2CC[C@H](CC(=O)NCCCN4CCOCC4)O[C@@H]2CO3)c1,inactive
9,Cc1cccc2sc(NNC(=O)C3COc4ccccc4O3)nc12 (stereo not given),inactive
10,Cn1c(SCC(=O)c2cc3ccccc3o2)nnc1-c1ccccc1,inactive
11,O=C(C[C@@H]1CC[C@@H]2[C@H](COC[C@@H](O)CN2C(=O)Nc2ccc(Cl)c(Cl)c2)O1)NCc1ccncc1,inactive
12,CCOCC(=O)Nc1cc(Cl)ccc1C,inactive
13,CSc1nc(Cl)cc(Nc2ccc(O)cc2)n1,inactive
14,CCOC(=O)C(=O)NNc1ccc(Cl)cc1,inactive
15,CCOC(=O)N1CCN(C(=S)NC(=O)c2ccc(F)c(F)c2)CC1,inactive
16,CN1C(=O)c2cc(NC(=O)c3cccc(F)c3)ccc2OC[C@@H]2O[C@@H](CC(=O)NCC3CCCCC3)CC[C@@H]21,inactive
17,Cc1cc(-c2ccc(NS(=O)(=O)c3ccccc3)c(C)c2)ccc1NS(=O)(=O)c1ccccc1,inactive
18,O=c1[nH]c(CSc2nnc(Cc3ccccc3)o2)nc2ccccc12,inactive
19,Cc1ccc(CN2C(=O)CN=C(c3ccccc3)c3ccccc32)cc1,inactive
20,Cc1csc(N=Nc2ccc(N(C)C)cc2)[n+]1[O-],inactive
21,Cc1c(CNC(=O)c2c([N+](=O)[O-])cnn2C)cnn1C,inactive
22,O=C(CSc1cccc2cccnc12)N/N=C/c1ccc(O)cc1,inactive

row,Compound,"activity change, negative = inhibition"
1,O=C(C[C@H]1C[C@H]2c3cc(NC(=O)c4ccc5c(c4)OCO5)ccc3O[C@H]2[C@H](CO)O1)NCc1cccc(F)c1,inactive
2,CCN1CCN(S(=O)(=O)c2ccc3[nH]c(=O)oc3c2)CC1,inactive
3,C/C(=N\OCC(=O)Nc1nc2ccccc2s1)c1ccccc1,inactive
4,COc1cc(/C=C/C(=O)OCC(=O)NCc2ccco2)ccc1O,inactive
5,COc1ccc(SC[C@H](C)CN2CC[C@H](NC(=O)OCc3ccccc3)CCC2=O)cc1,inactive
6,Cc1ccc(CNCCCn2cnc(C(=O)Nc3ccc(C)c(C)c3)n2)o1,inactive
7,CN1CCN(C(CNC(=O)c2ccc(Br)o2)c2ccc(F)cc2)CC1 (stereo not given),inactive
8,C/C(=N\NC(N)=S)c1ccc2c(c1)OCCO2,inactive
9,Cc1ccc(S(=O)(=O)Oc2ccc(/C=N/NC(=O)c3nn(C)cc3[N+](=O)[O-])cc2)cc1,inactive
10,Cc1ccc(NNC(=O)c2ccno2)cc1Cl,inactive
11,O=C(Nc1ccc(O)cc1)/C(=C\c1cccs1)NC(=O)c1ccccc1,inactive
12,COc1cc2oc3ccc(C#Cc4ccccn4)cc3c(=O)c2cc1OC,inactive
13,O=c1ccc2cc(O)c(O)cc2o1,inactive
14,COc1ccc(/C=N/N=C2/NC(=O)C(CC(=O)NC(N)=O)S2)cc1 (stereo not given),inactive
15,COc1cc(/C=C2\SC(=S)N(NC(=O)c3cccc(O)c3)C2=O)ccc1O,inactive
16,Cc1ccc(/C=C/c2onc(C)c2S(=O)(=O)N2CCC(C(=O)NC(C)(C)C)CC2)cc1,inactive
17,O=C(NCc1ccccc1)[C@@H]1CCCN1C(=O)[C@@H]1CCCN1C(=O)c1cccs1,inactive
18,N#CCCN(C(=O)COC(=O)c1cc(=O)c2ccccc2o1)c1ccccc1,inactive
19,CC(=O)Nc1ccc(S(=O)(=O)N2CCCC(C(=O)O)C2)cc1 (stereo not given),inactive
20,COc1ccc(CC(=O)C2C(=O)N(C)c3ccccc32)cc1OC (stereo not given),inactive
21,CNC(=O)C[C@H]1CC[C@@H]2[C@H](COc3ccc(NC(=O)c4ccc(OC)cc4)cc3C(=O)N2C)O1,inactive
22,C[C@H]1CN([C@@H](C)CO)S(=O)(=O)c2ccc(-c3ccncc3)cc2O[C@H]1CN(C)Cc1ccc(Oc2ccccc2)cc1,inactive

# Same assay, conditions: recombinant TcdB glycohydrolase activity, at 21 µM (top of the series)
row,Compound,"activity change, negative = inhibition"
1,CNC(=O)C[C@H]1CC[C@@H]2[C@H](COc3ccc(NS(=O)(=O)c4ccccc4C)cc3C(=O)N2C)O1,inactive
